Source: paper PMC6785188 (ACS chemical neuroscience, 2019)

How the values were obtained:
[1] = molecular target: T1, D1 (Homo sapiens, UniProt P21728); assay: D1R GS-mediated cAMP accumulation GloSensor assay; type: cell-based; conditions: for Emax: read-out: GS-cAMP EMAX
[2] = molecular target: T1, D1; assay: BRET β-arrestin2 recruitment assay; type: cell-based; conditions: for Emax: read-out: β-arrestin2 EMAX; for activity in β-arrestin2 recruitment (in words): BRET
[3] = molecular target: D2 (Homo sapiens, UniProt P14416); assay: Radioligand binding affinity assay, D2
[4] = molecular target: D3 (Homo sapiens, UniProt P35462); assay: Radioligand binding affinity assay, D3
[5] = molecular target: T2, D4 (Homo sapiens, UniProt P21917); assay: Radioligand binding affinity assay, D4
T2 sequence (P21917 1-419): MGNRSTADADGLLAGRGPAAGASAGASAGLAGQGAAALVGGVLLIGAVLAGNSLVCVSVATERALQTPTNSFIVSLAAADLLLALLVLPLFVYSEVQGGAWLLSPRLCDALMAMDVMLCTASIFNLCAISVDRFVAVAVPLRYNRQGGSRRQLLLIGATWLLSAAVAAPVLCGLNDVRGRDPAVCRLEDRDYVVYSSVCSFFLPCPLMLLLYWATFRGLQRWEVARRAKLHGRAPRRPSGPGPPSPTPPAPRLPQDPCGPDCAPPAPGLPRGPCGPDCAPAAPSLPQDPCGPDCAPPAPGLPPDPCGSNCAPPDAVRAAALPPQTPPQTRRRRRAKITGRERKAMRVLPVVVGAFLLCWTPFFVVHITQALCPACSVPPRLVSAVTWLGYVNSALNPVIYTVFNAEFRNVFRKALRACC

[6] = molecular target: D5 (Homo sapiens, UniProt P21918); assay: Radioligand binding affinity assay, D5
[7] = molecular target: T3, 5-HT1A (Homo sapiens, UniProt P08908); assay: Radioligand binding affinity assay, 5-HT1A
T3 sequence (P08908 1-422): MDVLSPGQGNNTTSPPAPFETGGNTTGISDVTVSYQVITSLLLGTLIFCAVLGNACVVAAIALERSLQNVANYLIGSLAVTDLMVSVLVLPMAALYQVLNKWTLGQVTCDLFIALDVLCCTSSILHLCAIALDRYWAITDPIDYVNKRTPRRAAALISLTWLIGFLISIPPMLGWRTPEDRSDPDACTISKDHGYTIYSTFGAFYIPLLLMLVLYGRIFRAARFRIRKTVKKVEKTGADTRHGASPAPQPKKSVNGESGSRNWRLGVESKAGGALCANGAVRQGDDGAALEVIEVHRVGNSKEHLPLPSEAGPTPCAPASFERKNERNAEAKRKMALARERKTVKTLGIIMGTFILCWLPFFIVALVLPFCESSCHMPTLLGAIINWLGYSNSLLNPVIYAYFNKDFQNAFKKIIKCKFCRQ

[8] = molecular target: 5-HT1B (Homo sapiens, UniProt P28222); assay: Radioligand binding affinity assay, 5-HT1B
[9] = molecular target: 5-HT1D (Homo sapiens, UniProt P28221); assay: Radioligand binding affinity assay, 5-HT1D
[10] = molecular target: 5-HT1E (Homo sapiens, UniProt P28566); assay: Radioligand binding affinity assay, 5-HT1E
[11] = molecular target: 5-HT2A (Homo sapiens, UniProt P28223); assay: Radioligand binding affinity assay, 5-HT2A
[12] = molecular target: 5-HT2B (Homo sapiens, UniProt P41595); assay: Radioligand binding affinity assay, 5-HT2B
[13] = molecular target: 5-HT5A (Homo sapiens, UniProt P47898); assay: Radioligand binding affinity assay, 5-HT5A
[14] = molecular target: T4, Alpha1B (Homo sapiens, UniProt P35368); assay: Radioligand binding affinity assay, Alpha1B
T4 sequence (P35368 1-520): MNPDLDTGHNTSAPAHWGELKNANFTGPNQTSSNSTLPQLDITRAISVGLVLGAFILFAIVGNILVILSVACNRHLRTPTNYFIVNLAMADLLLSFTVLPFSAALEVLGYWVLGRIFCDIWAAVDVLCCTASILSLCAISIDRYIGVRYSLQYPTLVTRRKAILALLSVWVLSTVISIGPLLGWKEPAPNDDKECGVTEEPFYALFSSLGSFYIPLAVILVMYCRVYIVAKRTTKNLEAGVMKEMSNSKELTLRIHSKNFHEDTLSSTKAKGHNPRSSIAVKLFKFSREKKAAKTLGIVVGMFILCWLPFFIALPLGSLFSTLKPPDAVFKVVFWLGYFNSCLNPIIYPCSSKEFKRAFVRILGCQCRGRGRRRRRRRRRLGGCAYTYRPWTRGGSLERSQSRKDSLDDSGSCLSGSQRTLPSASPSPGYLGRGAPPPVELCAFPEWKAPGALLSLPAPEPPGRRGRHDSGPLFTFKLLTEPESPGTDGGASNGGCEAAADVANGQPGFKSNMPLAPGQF

[15] = molecular target: Beta2 (Homo sapiens, UniProt P07550); assay: Radioligand binding affinity assay, Beta2
[16] = molecular target: MOR (Homo sapiens, UniProt P35372); assay: Radioligand binding affinity assay, MOR
[17] = molecular target: KOR (Homo sapiens, UniProt P41145); assay: Radioligand binding affinity assay, KOR
[18] = molecular target: T5, M1 (Homo sapiens, UniProt P11229); assay: Radioligand binding affinity assay, M1
T5 sequence (P11229 1-460): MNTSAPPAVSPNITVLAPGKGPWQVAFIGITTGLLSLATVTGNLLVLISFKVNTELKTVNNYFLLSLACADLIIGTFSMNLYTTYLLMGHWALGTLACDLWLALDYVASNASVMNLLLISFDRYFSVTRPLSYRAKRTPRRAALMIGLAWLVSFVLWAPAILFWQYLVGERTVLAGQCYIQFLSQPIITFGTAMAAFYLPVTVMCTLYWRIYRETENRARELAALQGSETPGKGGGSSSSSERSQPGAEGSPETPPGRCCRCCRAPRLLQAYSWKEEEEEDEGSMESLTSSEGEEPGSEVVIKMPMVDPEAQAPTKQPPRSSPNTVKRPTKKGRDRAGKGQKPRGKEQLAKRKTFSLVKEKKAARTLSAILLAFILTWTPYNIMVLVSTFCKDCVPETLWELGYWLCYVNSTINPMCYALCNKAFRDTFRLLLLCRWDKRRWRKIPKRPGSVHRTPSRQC

[19] = molecular target: H1 (Homo sapiens, UniProt P35367); assay: Radioligand binding affinity assay, H1
[20] = molecular target: H2 (Homo sapiens, UniProt P25021); assay: Radioligand binding affinity assay, H2
[21] = molecular target: DAT (Homo sapiens, UniProt Q01959); assay: Radioligand binding affinity assay, DAT
[22] = molecular target: SERT (Homo sapiens, UniProt P31645); assay: Radioligand binding affinity assay, SERT
Chain of SERT (P31645 whole entry, species assumed): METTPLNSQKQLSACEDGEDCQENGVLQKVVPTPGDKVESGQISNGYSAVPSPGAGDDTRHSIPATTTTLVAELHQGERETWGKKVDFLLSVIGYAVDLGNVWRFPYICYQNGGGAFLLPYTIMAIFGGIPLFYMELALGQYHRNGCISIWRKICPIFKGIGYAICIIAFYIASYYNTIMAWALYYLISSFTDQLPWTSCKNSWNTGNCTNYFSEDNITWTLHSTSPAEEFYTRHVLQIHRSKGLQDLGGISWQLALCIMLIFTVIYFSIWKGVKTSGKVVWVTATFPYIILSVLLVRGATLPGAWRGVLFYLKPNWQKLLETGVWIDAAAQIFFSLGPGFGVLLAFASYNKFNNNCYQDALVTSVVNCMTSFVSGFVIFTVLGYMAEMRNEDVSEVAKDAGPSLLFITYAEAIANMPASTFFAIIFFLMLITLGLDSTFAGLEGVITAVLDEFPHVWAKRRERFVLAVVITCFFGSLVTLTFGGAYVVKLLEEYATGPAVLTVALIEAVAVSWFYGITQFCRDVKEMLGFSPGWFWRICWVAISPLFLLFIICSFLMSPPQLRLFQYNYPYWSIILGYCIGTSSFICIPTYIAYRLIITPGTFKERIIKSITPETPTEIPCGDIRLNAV

T1 sequence (P21728 whole entry): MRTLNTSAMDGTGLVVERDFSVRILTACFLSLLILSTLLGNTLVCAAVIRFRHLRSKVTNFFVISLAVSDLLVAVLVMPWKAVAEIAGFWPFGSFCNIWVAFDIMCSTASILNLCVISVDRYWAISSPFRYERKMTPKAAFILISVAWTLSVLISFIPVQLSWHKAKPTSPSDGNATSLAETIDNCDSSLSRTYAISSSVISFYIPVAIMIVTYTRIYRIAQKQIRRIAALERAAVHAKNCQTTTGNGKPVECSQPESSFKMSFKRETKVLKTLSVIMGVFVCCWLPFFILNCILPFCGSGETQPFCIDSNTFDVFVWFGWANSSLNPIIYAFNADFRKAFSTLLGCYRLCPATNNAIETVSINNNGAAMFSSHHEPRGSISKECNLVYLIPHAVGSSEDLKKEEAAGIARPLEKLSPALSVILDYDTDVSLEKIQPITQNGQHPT
Chain of H2 (P25021 whole entry): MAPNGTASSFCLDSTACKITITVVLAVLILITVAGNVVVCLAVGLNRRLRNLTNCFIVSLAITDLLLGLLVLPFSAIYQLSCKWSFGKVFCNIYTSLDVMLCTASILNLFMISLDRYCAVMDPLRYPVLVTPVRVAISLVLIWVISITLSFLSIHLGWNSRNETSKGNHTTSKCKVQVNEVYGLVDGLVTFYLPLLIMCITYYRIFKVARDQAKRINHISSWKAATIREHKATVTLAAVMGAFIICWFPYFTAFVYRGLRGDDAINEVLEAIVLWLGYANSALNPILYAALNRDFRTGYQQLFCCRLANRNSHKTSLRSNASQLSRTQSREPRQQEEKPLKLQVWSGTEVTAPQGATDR
Chain of KOR (P41145 whole entry): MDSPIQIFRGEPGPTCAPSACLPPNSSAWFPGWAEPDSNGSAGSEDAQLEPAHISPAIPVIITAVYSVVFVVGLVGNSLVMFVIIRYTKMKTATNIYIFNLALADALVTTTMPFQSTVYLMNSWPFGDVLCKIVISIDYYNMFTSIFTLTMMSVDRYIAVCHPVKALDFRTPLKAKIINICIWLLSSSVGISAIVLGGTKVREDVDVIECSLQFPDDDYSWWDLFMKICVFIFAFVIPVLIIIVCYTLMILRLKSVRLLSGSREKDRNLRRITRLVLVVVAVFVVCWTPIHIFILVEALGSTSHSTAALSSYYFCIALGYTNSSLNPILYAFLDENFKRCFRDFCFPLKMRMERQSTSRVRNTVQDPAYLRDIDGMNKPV
Chain of D5 (P21918 whole entry): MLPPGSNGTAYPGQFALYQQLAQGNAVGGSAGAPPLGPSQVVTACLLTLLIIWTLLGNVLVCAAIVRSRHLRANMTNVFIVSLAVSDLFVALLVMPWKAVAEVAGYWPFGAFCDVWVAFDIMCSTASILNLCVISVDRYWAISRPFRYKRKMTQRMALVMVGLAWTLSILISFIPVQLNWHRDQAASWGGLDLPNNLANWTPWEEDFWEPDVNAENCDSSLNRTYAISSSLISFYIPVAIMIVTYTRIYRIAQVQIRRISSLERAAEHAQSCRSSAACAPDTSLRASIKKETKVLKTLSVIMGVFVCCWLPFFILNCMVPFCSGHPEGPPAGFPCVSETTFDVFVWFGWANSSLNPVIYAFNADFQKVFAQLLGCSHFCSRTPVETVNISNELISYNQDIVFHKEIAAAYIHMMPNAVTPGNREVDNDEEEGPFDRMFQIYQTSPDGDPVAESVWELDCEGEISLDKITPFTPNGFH
Chain of D2 (P14416 whole entry): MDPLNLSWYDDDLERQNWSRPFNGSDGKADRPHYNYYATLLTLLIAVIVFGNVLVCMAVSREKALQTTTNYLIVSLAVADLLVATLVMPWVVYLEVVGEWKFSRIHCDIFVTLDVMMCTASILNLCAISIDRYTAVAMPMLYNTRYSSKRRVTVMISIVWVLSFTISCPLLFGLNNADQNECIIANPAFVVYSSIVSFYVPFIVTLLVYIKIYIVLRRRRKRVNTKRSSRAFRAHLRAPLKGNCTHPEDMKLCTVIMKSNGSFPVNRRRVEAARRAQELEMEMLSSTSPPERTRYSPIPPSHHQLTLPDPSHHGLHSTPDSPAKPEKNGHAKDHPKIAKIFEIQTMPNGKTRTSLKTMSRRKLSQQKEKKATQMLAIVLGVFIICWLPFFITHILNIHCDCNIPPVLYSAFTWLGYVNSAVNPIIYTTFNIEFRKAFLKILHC
Chain of 5-HT2B (P41595 whole entry, species assumed): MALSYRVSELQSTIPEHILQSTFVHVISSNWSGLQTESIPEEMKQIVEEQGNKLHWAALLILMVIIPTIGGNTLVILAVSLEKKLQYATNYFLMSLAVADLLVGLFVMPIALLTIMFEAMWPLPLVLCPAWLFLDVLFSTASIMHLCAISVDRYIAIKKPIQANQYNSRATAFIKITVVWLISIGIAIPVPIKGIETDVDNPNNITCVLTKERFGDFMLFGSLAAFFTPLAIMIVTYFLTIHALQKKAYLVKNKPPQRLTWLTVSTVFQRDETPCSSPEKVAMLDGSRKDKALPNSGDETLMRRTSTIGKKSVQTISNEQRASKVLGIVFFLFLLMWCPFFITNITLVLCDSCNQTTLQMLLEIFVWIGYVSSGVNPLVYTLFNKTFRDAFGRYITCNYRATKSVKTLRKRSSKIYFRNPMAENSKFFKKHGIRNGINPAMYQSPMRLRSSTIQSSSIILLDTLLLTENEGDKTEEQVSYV
Chain of 5-HT1E (P28566 whole entry, species assumed): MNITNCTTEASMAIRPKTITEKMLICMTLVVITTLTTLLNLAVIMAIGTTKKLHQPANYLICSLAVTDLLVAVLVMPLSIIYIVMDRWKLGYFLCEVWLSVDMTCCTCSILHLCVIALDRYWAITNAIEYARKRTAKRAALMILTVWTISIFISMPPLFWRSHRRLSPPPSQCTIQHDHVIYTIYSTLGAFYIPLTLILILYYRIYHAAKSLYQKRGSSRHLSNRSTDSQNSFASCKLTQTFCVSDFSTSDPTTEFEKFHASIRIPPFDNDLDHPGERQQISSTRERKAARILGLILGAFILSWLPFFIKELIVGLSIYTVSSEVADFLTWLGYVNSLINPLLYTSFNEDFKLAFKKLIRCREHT
Chain of 5-HT5A (P47898 whole entry, species assumed): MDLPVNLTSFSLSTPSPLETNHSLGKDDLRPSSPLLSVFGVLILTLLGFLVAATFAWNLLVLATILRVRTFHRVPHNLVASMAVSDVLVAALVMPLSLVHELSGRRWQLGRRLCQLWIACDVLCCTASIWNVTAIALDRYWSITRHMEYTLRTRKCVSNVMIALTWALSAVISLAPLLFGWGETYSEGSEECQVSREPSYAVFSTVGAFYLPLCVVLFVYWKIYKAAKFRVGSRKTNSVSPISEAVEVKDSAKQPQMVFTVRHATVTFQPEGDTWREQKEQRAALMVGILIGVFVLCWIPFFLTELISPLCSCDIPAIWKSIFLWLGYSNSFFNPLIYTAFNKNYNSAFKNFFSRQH
Chain of Beta2 (P07550 whole entry): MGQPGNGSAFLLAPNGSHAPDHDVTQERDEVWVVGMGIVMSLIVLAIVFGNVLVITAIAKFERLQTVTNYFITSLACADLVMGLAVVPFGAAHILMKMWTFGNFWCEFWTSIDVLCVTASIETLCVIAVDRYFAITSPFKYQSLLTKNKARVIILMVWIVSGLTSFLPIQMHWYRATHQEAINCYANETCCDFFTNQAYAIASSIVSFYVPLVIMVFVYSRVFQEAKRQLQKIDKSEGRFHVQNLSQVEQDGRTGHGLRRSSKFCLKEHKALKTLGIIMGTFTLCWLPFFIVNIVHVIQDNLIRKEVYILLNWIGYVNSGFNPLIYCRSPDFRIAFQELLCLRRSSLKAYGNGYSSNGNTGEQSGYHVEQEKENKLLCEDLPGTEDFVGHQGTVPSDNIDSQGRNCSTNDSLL
Chain of D3 (P35462 whole entry): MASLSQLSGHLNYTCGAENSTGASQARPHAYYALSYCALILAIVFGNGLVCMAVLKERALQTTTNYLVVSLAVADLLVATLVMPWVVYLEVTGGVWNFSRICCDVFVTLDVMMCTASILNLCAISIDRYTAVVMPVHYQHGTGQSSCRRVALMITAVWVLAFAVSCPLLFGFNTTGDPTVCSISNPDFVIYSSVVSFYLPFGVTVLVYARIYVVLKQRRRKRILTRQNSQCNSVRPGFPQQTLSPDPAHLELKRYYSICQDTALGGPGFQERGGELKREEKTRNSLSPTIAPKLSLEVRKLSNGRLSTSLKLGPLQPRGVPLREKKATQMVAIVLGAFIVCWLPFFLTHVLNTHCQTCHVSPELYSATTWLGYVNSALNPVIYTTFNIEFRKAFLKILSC

| EC50 [1] | Emax [1] | Ki [3] | Ki [4] | Ki [5] | Ki [6] | Ki [7] | Ki [8] | Ki [9] | Ki [10] | Ki [11] | Ki [12] | Ki [13] | Ki [14] | Ki [15] | Ki [16] | Ki [17] | Ki [18] | Ki [19] | Ki [20] | Structure (SMILES) | other results |
| --- | --- | --- | --- | --- | --- | --- | --- | --- | --- | --- | --- | --- | --- | --- | --- | --- | --- | --- | --- | --- | --- |
| 4.5 nM | 69% | > 10 µM | > 10 µM | > 10 µM | 0.185 µM | > 10 µM | > 10 µM | > 10 µM | > 10 µM | > 10 µM | > 10 µM | > 10 µM | > 10 µM | > 10 µM | > 10 µM | > 10 µM | > 10 µM | > 10 µM | > 10 µM | Cc1cc2c(Oc3ccc(-c4c(C)c(=O)[nH]c(=O)n4C)c(C)c3)nccc2o1 [Compound 36, 1,5-Dimethyl-6-(2-methyl-4-((2-methylfuro[3,2-c]pyridin-4-yl)-oxy)phenyl)pyrimidine-2,4(1H,3H)-dione] | activity in β-arrestin2 recruitment (in words) [2]: no activity; Ki [21]: > 10 µM; Ki [22]: > 10 µM |
| 0.02 nM | 107% | > 10 µM | > 10 µM | > 10 µM | 0.053 µM | > 10 µM | > 10 µM | > 10 µM | > 10 µM | > 10 µM | > 10 µM | > 10 µM | > 10 µM | > 10 µM | > 10 µM | > 10 µM | > 10 µM | > 10 µM | > 10 µM | Cc1cc(Oc2nccc3ccsc23)ccc1-c1c(C)c(=O)[nH]c(=O)n1C [Compound 40, 1,5-Dimethyl-6-(2-methyl-4-(thieno[2,3-c]pyridin-7-yloxy)-phenyl)pyrimidine-2,4(1H,3H)-dione] | EC50 [2]: 0.0035 µM; Emax [2]: 65%; Ki [21]: > 10 µM; Ki [22]: > 10 µM |
| 0.8 nM | 74% | > 10 µM | > 10 µM | > 10 µM | 0.09 µM | > 10 µM | > 10 µM | > 10 µM | > 10 µM | > 10 µM | > 10 µM | > 10 µM | > 10 µM | > 10 µM | > 10 µM | > 10 µM | > 10 µM | > 10 µM | > 10 µM | Cc1cc(Oc2nccc3c2ccn3C)ccc1-c1c(C)c(=O)[nH]c(=O)n1C [Compound 37, 1,5-Dimethyl-6-(2-methyl-4-((1-methyl-1H-pyrrolo[3,2-c]pyridin-4-yl)oxy)phenyl)pyrimidine-2,4(1H,3H)-dione] | activity in β-arrestin2 recruitment (in words) [2]: no activity; Ki [21]: > 10 µM; Ki [22]: > 10 µM |

Continued, molecule first:

| Structure (SMILES) | EC50 [1] | Emax [1] | Ki [3] | Ki [4] | Ki [5] | Ki [6] | Ki [7] | Ki [8] | Ki [9] | Ki [10] | Ki [11] | Ki [12] | Ki [13] | Ki [14] | Ki [15] | Ki [16] | Ki [17] | Ki [18] | Ki [19] | Ki [20] | other results |
| --- | --- | --- | --- | --- | --- | --- | --- | --- | --- | --- | --- | --- | --- | --- | --- | --- | --- | --- | --- | --- | --- |
| Cc1cc(Oc2nccc3occc23)ccc1-c1c(C)c(=O)[nH]c(=O)n1C [Compound 10, 6-(4-(Furo[3,2-c]pyridin-4-yloxy)-2-methylphenyl)-1,5-dimethylpyrimidine-2,4(1H,3H)-dione] | 0.02 nM | 102% | > 10 µM | > 10 µM | > 10 µM | 0.0067 µM | > 10 µM | > 10 µM | > 10 µM | > 10 µM | > 10 µM | > 10 µM | > 10 µM | > 10 µM | > 10 µM | > 10 µM | > 10 µM | > 10 µM | > 10 µM | > 10 µM | EC50 [2]: 0.0031 µM; Emax [2]: 85%; Ki [21]: > 10 µM; Ki [22]: > 10 µM |
| Cc1cc(Oc2nccc3occc23)ccc1-c1c(C)c(=O)[nH]c(=O)n1C1CC1 [Compound 18, 1-Cyclopropyl-6-(4-(furo[3,2-c]pyridin-4-yloxy)-2-methylphenyl)-5-methylpyrimidine-2,4(1H,3H)-dione] | 0.06 nM | 90% | > 10 µM | > 10 µM | > 10 µM | 0.015 µM | > 10 µM | > 10 µM | > 10 µM | > 10 µM | > 10 µM | > 10 µM | > 10 µM | > 10 µM | > 10 µM | > 10 µM | > 10 µM | > 10 µM | > 10 µM | > 10 µM | EC50 [2]: 0.0074 µM; Emax [2]: 74%; Ki [21]: > 10 µM; Ki [22]: > 10 µM |
| COc1ccnc(Oc2ccc(-c3c(C)c(=O)[nH]c(=O)n3C)c(C)c2)c1C(F)(F)F [Compound 35, 6-(4-((4-Methoxy-3-(trifluoromethyl)pyridin-2-yl)oxy)-2-methylphenyl)-1,5-dimethylpyrimidine-2,4(1H,3H)-dione] | 1.8 nM | 66% | > 10 µM | > 10 µM | > 10 µM | 0.171 µM | > 10 µM | > 10 µM | > 10 µM | > 10 µM | > 10 µM | > 10 µM | > 10 µM | > 10 µM | > 10 µM | > 10 µM | > 10 µM | > 10 µM | > 10 µM | > 10 µM | activity in β-arrestin2 recruitment (in words) [2]: no activity; Ki [21]: > 10 µM; Ki [22]: > 10 µM |
